Test results from US20250154127A1, “BICYCLIC HETEROARYL COMPOUNDS AND USES THEREOF” (ETERN BIOPHARMA (SHANGHAI) CO., LTD., priority 2022, published 2025).

Legend:
[1] = molecular target: TEAD1(210-426) binding to YAP(50-100) (Homo sapiens, UniProt P28347); assay: TR-FRET Assay for TEAD1(210-426) Binding to YAP(50-100); conditions: His-TEAD 10 nM, YAP-Biotin peptide 50 nM
Method in brief: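 10 nM His-TEAD1 preincubated 30 min at room temperature with compound (3-fold dilutions, 12 points, 1% DMSO), then 50 nM biotin-YAP peptide added.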

MSTO-211H cells = assay: Proliferation Assay (CellTiter-Glo Luminescent Cell Viability Assay); format: cell-based; conditions: Homo sapiens, 96 hours treatment
Method in brief: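 MSTO-211H cells, 1,500/well in RPMI 1640 with 10% FBS, plated overnight, then treated 96 h with 9-point 3-fold compound series in duplicate (DMSO below 0.5%). Viability by CellTiter-Glo luminescence; inhibition relative to DMSO wells, IC50 by four-parameter fit.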

TEAD1(210-426) binding to YAP(50-100), sequence (P28347 209-426): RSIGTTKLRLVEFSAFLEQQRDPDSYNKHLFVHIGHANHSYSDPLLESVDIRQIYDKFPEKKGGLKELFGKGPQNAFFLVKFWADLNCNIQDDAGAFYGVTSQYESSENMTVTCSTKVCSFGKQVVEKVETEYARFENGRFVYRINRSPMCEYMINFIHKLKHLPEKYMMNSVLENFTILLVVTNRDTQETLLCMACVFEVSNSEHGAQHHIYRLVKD

Row | Structure (SMILES) | IC50 [1] | IC50 (MSTO-211H cells)
1 | O=c1cc(-n2nc(-c3ccc(C(F)(F)F)cc3)c3ncccc32)ccn1Cc1ccn(CCO)n1 [Compound 45] | ≤ 100 nM | ≤ 1000 nM
2 | COCCN(C)c1nccc(Cn2ccc(-c3nn(-c4ccc(C(F)(F)F)cc4)c4cccc(F)c34)cc2=O)n1 [Compound 155, 4-(4-fluoro-1-(4-(trifluoromethyl)phenyl)-1H-indazol-3-yl)-1-((2-((2-methoxyethyl)(methyl)amino)pyrimidin-4-yl)methyl)pyridin-2(1H)-one] | 100 to 1000 nM | ≤ 1000 nM
3 | Cn1ccc(Cn2ccc(-c3cn(-c4ccc(C(F)(F)F)cc4)c4ncccc34)cc2=O)n1 [Compound 64, 1-((1-methyl-1H-pyrazol-3-yl)methyl)-4-(1-(4-(trifluoromethyl)phenyl)-1H-pyrrolo[2,3-b]pyridin-3-yl)pyridin-2(1H)-one] | ≤ 100 nM | ≤ 1000 nM
4 | CN(CCO)c1nccc(Cn2ccc(-c3nn(-c4ccc(C(F)(F)F)cc4)c4nccnc34)cc2=O)n1 [Compound 106, 1-((2-((2-hydroxyethyl)(methyl)amino)pyrimidin-4-yl)methyl)-4-(1-(4-(trifluoromethyl)phenyl)-1H-pyrazolo[3,4-b]pyrazin-3-yl)pyridin-2(1H)-one] | ≤ 100 nM | ≤ 1000 nM
5 | CN(CCO)c1ccnc(Cn2ccc(-c3nn(-c4ccc(C(F)(F)F)cc4)c4ncccc34)cc2=O)n1 [Compound 75, 1-((4-((2-hydroxyethyl)(methyl)amino)pyrimidin-2-yl)methyl)-4-(1-(4-(trifluoromethyl)phenyl)-1H-pyrazolo[3,4-b]pyridin-3-yl)pyridin-2(1H)-one] | ≤ 100 nM | ≤ 1000 nM
6 | CNc1nccc(Cn2ccc(-c3nn(-c4ccc(C(F)(F)F)cc4)c4cc(F)ccc34)cc2=O)n1 [Compound 141, 4-(6-fluoro-1-(4-(trifluoromethyl)phenyl)-1H-indazol-3-yl)-1-((2-(methylamino)pyrimidin-4-yl)methyl)pyridin-2(1H)-one] | ≤ 100 nM | ≤ 1000 nM
7 | O=c1cc(-c2nn(-c3ccc(C(F)(F)F)cc3)c3ncccc23)ccn1Cc1ccn(CCO)n1 [Compound 74, 1-((1-(2-hydroxyethyl)-1H-pyrazol-3-yl)methyl)-4-(1-(4-(trifluoromethyl)phenyl)-1H-pyrazolo[3,4-b]pyridin-3-yl)pyridin-2(1H)-one] | ≤ 100 nM | ≤ 1000 nM
8 | CNc1nccc(Cn2ccc(-c3nn(-c4ccc(Cl)cc4)c4c(F)cccc34)cc2=O)n1 [Compound 146, 4-(1-(4-chlorophenyl)-7-fluoro-1H-indazol-3-yl)-1-((2-(methylamino)pyrimidin-4-yl)methyl)pyridin-2(1H)-one] | ≤ 100 nM | ≤ 1000 nM
9 | COCCOc1nccc(Cn2ccc(-c3nn(-c4ccc(C(F)(F)F)cc4)c4ccccc34)cc2=O)n1 [Compound 82, 1-((2-(2-methoxyethoxy)pyrimidin-4-yl)methyl)-4-(1-(4-(trifluoromethyl)phenyl)-1H-indazol-3-yl)pyridin-2(1H)-one] | ≤ 100 nM | ≤ 1000 nM
10 | O=c1cc(-c2nn(-c3ccc(C(F)(F)F)cc3)c3ccccc23)ccn1Cc1ccnc(N2CC(O)C2)n1 [Compound 95, 1-((2-(3-hydroxyazetidin-1-yl)pyrimidin-4-yl)methyl)-4-(1-(4-(trifluoromethyl)phenyl)-1H-indazol-3-yl)pyridin-2(1H)-one] | ≤ 100 nM | ≤ 1000 nM
11 | CN(CCO)c1nccc(Cn2ccc(-c3nn(-c4ccc(C(F)(F)F)cc4)c4c(F)cccc34)cc2=O)n1 [Compound 138, 4-(7-fluoro-1-(4-(trifluoromethyl)phenyl)-1H-indazol-3-yl)-1-((2-((2-hydroxyethyl)(methyl)amino)pyrimidin-4-yl)methyl)pyridin-2(1H)-one] | 100 to 1000 nM | ≤ 1000 nM
12 | O=c1cc(-c2nn(-c3ccc(C(F)(F)F)cc3)c3c(F)cccc23)ccn1Cc1ccnc(Cl)n1 [Compound 157, 1-((2-chloropyrimidin-4-yl)methyl)-4-(7-fluoro-1-(4-(trifluoromethyl)phenyl)-1H-indazol-3-yl)pyridin-2(1H)-one] | ≤ 100 nM | ≤ 1000 nM
